By LD50 is commonly meant the dose expected to kill half of the subjects tested. The ED50 is the dose that gives a 50% effect, or the effect in half of the subjects. As usually defined, the AUC(0-t) is exposure summed from dosing to a finite time, without extrapolation to infinity. Higher therefore signals more exposure. Usually half-life stands for the time in which the quantity being followed falls by half. Read a high half-life as slow loss.

Read-outs that look alike come from different tables or passages of the source.

Series [1] can be described thus: in vivo. The note with it: both, ICR, mouse, in vivo, iv. As to the method:
(§1) SPF-grade ICR mice, each weighing 18-22 g, half male and half female, were used. A well-established mouse anesthesia model was used to study the general anesthesia effect of the compound of the present invention. The compounds were formulated with solvents of 10% DMSO, 15% solutol (HS15) and 75% saline to the desired concentration, for further use. After adapting to the experimental environment, the experimental animals were fasted with water available for 12 h, and were administered via intravenous injection at an administration volume of 10 mL/kg. Then the anesthesia induction time (the time period from drug administration to disappearance of the righting reflex) and the anesthesia maintenance time (the time period from disappearance of the righting reflex to recovery of the righting reflex) were recorded. Indicators including the median effective dose (ED50), median lethal dose (LD50), therapeutic index (TI, i.e. LD50/ED50), anesthesia induction time, anesthesia maintenance time and maximum tolerated dose were used to evaluate the effect and safety of anesthesia.

The test system of another series is ICR mice. Briefly: animal or person. As to the method:
as §1

Series [2] is described as follows: in vivo. Format: in vivo, rats. The note with it: both sexes, Sprague-Dawley, rat, in vivo, rats.
Method: (§2) SD rats, half male and half female, were fasted with water available for 12 h, and were administered via intravenous injection at an administration volume of 10 mL/kg. Then the anesthesia induction time (the time period from drug administration to disappearance of the righting reflex), the anesthesia maintenance time (the time period from disappearance of the righting reflex to recovery of the righting reflex and revival) and the anesthesia recovery time (the time period from revival to complete recovery) were recorded. Indicators including the median effective dose (ED50), median lethal dose (LD50), therapeutic index (TI, i.e. LD50/ED50), anesthesia induction time, anesthesia maintenance time and maximum tolerated dose were used to evaluate the effect and safety of anesthesia.
A further series concerns SD rats. In words: animal or person. Format: in vivo. Conditions: rats.
Another series concerns the target GABAA (α1β2γ2) receptor (Homo sapiens (Human), UniProt P14867+P18507+P47870). Briefly: Whole-cell patch-clamp of GABAA (α1β2γ2) receptor current in stably expressing HEK293 cells. The format is cell-based. Conditions: allosteric regulation. From the text:
Gamma-aminobutyric acid (GABA) was an important inhibitory amino acid neurotransmitter in the central nervous system, and functioned by binding to GABA receptors. The GABA receptors were divided into three subtypes: GABAA, GABAB and GABAC, among which the GABAA receptor was the most important. The GABAA receptor was an anion-selective ion channel that could enhance chloride ion permeability and thus reduce neuronal excitability. The GABAA receptor was involved in regulating general anesthesia and was also closely related to diseases such as neurological and psychiatric disorders, e.g., depression, insomnia, anxiety and epilepsy. […]
HEK293 cell lines stably expressing the GABAA (α1β2γ2) receptor were used. […] The voltage stimulus of GABA receptor current recorded by a whole-cell patch-clamp technique was as follows: when whole-cell sealing was formed, the cell membrane voltage was clamped at −70 mV. The peak value of current was recorded after sequentially spraying test compounds from low concentration to high concentration and 100 μM GABA onto the cell surface in a Gap-free mode. […] Then slow capacitance compensation was conducted, and the membrane capacitance (pF) and series resistance were recorded. […] Multiple cells were independently and repeatedly detected. […]

Series [3] can be described thus: Pharmacokinetic study in rats. The note with it: male, Sprague-Dawley, rat, plasma, iv, 1 mg/kg. Format: in vivo, SD rats. As to the method:
Twelve male SD rats (200-300 g) were randomized into 2 groups (n=6): control group 3 and compound 20. The rats were administered via intravenous injection at 1 mg/kg (control group 3) and 1 mg/kg (compound 20), respectively, with an administration volume of 5 mL/kg and a vehicle of 5% DMSO+10% solutol (HS15)+85% Saline. Blood samples were taken before administration and at 2 min, 4 min, 8 min, 12 min, 15 min, 30 min, 1 h, 1.5 h and 2 h after administration. Plasma samples were taken by centrifugation, and stored in a −80° C. refrigerator until LC-MS analysis to be tested. After sample processing, quantitative analysis of substances in plasma was conducted using LCMS/MS to detect the concentration of prototype compounds in the plasma. The plasma concentration/time curve obtained in this way was used to calculate pharmacokinetic parameters by a validated pharmacokinetic computer program.

A short description of series [4]: Pharmacokinetic study in Beagle dogs. The format is in vivo. Conditions: male, dog, plasma, iv, 0.5 mg/kg. The method, then:
Six male Beagle dogs (6-10 kg) were randomized into 2 groups (n=3): control group 3 and compound 20. The […] were administered via intravenous injection at 0.5 mg/kg (control group 3) and 0.5 mg/kg (compound 20), respectively, with an administration volume of 1 mL/kg and a vehicle of 5% DMSO+10% solutol (HS15)+85% Saline. Blood samples were taken before administration and at 2 min, 5 min, 10 min, 20 min, 30 min, 1 h, 1.5 h, 2 h and 3 h after administration. Plasma samples were taken by centrifugation, and stored in a −80° C. refrigerator until LC-MS analysis to be tested. After sample processing, quantitative analysis of substances in plasma was conducted using LCMS/MS to detect the concentration of prototype compounds in the plasma. The plasma concentration/time curve obtained in this way was used to calculate pharmacokinetic parameters by a validated pharmacokinetic computer program.

The subject of another series is Beagle dogs. In words: Hemodynamic effect study in conscious Beagle dogs (telemetry). The note with it: iv. Format: in vivo. The method, then: The experiment used an emka PACK 4G telemetry system to detect the effects of intravenous injection of control group 3 and compound 20 on electrocardiogram, blood pressure and body temperature in conscious Beagle dogs, providing reference information for evaluating the safety of clinical use.
Four Beagle dogs were subjected to crossover administration, with a vehicle control (5% DMSO+10% solutol+85% Saline), control group 3 (2 mg/kg), compound 20 (0.5 mg/kg) and compound 20 (1 mg/kg) for each intravenous injection, with an administration volume of 2 mL/kg. Observations were respectively conducted before administration and within 1 h after administration on the day of administration. Anal temperature was measured before administration and at 30 min, 1 h, 2 h and 3 h after administration during each administration period; and electrocardiogram parameters were continuously collected from 0.5 h before administration to 3 h after administration during each administration period. Blood pressure was collected at 15 min after collection was started, and was collected at 2 min, 5 min, 10 min, 20 min, 30 min, 1 h, 2 h and 3 h after administration. The electrocardiogram, blood pressure data, body temperature, and clinical observation results on the day of administration at various time points including before administration (at 30 min after collection was started) and at 2 min, 5 min, 10 min, 20 min, 30 min, 1 h, 2 h and 3 h after administration were analysed and evaluated.

Sequence of GABAA (α1β2γ2) receptor (P14867 28-456 limits assumed): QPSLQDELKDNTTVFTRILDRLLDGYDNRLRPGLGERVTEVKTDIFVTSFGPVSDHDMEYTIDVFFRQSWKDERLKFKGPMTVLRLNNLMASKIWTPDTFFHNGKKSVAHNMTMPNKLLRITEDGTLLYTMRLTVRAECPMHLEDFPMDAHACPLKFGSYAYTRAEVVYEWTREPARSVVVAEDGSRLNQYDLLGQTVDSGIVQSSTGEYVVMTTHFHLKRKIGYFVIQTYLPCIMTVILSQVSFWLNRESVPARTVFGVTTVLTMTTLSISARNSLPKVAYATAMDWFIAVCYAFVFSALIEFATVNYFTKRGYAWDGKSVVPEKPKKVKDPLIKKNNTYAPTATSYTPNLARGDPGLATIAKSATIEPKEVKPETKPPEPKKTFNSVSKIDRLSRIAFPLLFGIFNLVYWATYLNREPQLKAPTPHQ
Sequence of GABAA (α1β2γ2) receptor (P47870 26-512 limits assumed): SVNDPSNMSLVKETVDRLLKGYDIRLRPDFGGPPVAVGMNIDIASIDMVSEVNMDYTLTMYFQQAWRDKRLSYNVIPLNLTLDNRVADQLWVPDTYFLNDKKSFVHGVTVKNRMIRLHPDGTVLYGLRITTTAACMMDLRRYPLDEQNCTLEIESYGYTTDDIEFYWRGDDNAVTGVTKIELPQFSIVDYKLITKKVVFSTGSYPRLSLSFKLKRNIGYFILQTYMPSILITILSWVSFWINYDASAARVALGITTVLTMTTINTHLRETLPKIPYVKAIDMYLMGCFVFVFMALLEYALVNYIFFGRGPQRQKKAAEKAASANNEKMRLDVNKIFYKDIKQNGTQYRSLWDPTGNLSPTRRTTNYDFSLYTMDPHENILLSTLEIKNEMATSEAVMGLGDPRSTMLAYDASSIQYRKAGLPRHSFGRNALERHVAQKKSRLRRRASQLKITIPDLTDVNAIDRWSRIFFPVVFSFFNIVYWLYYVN
Sequence of GABAA (α1β2γ2) receptor (P18507 40-475 limits assumed): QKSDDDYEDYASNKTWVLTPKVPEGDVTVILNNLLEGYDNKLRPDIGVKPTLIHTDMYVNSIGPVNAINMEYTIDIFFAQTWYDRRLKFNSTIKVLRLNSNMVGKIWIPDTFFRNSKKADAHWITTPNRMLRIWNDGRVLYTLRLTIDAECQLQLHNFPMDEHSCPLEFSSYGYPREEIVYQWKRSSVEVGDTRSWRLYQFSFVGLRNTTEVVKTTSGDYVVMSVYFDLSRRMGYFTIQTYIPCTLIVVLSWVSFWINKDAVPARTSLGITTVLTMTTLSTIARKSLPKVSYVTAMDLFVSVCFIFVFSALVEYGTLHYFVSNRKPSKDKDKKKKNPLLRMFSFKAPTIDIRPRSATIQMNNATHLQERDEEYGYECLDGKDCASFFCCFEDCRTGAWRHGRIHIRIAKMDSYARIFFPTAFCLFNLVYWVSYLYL
Method for SD rats: as §2

Consider `CCS(=O)(=O)[C@@H](C)c1cccc([C@H](C)C2CC2)c1O` [Compound 20, 2-((R)-1-cyclopropylethyl)-6-((S)-1-(ethylsulfonyl)ethyl)phenol], for which the LD50 in “in vivo [1]” was 3.5 mg/kg; in “in vivo [2]” (intravenous injection, read-out: LD50) it was 3.2 mg/kg. Further, the MTD is 1.8 mg/kg in the series “in vivo [1]” and 2.2 mg/kg in “in vivo [2]” (iv, maximum tolerated dose, read-out: MTD). In addition, the ED50 in the series on ICR mice (Mus musculus, iv) was 0.6 mg/kg; with SD rats (Rattus norvegicus, intravenous injection, loss of righting reflex, read-out: ED50), 0.5 mg/kg. Moreover, the TI in the series on ICR mice (mice, LD50/ED50) came out at 5.8; in the series on SD rats (LD50/ED50), 6.4. Besides, the Anesthesia induction time came to 2 s in the series on ICR mice (mice, iv, administration to disappearance of righting reflex) and 10 s in the series with SD rats (iv, administration to disappearance of righting reflex). The Anesthesia maintenance time with ICR mice (mice, iv, disappearance to recovery of righting reflex) was found to be 573 s; in the series on SD rats (iv, disappearance to recovery of righting reflex) it was 624 s. For the same molecule, the EC50 on GABAA (α1β2γ2) receptor (HEK293, -70 mV, n=3, read-out: EC50) was found to be 1560 nM; at GABAA (α1β2γ2) receptor (HEK293, text restatement, read-out: semi-activated concentration (EC50)), 1560 nM. Besides, the AUC(0-t) worked out at 196 ng·h/mL in series [3] and 128 ng·h/mL in series [4]. In addition, the half-life in series [3] was 19.8 min; in series [4], 47.4 min. Moreover, the “effect on the heart rate, blood pressure and body temperature” value in the series with Beagle dogs (0.5 and 1 mg/kg) is listed as “little effect”. Moreover, the “change in heart rate after administration” value in the series on Beagle dogs (control group 3 2 mg/kg, compound 20 0.5 and 1 mg/kg, within 1 h, recovery after 1 h) is “slow down in heart rate”.

(Values after US20240132445A1, “PHENOL DERIVATIVE AND APPLICATION THEREOF IN MEDICAMENTS” (priority 2021, published 2024).)
